Columns and labels:
Assay in all cases: relative viability (nuclei count vs DMSO), 5 days (fraction); higher = more cells survive
OSI-027 + Pemetrexed = compound: COc1cccc2cc(-c3nc([C@H]4CC[C@H](C(=O)O)CC4)n4ncnc(N)c34)[nH]c12 [OSI-027] + Nc1nc2[nH]cc(CCc3ccc(C(=O)N[C@@H](CCC(=O)O)C(=O)O)cc3)c2c(=O)[nH]1 [Pemetrexed] (partner 0.2 µM)
Outline: (§1)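 Lung cancer cell lines in 1536-well plates got either a single drug or a fixed anchor-drug dose together with five library-drug doses (not always all listed) in √10 steps, by pin tool, on the day after seeding. Nuclei were counted after 5 days, and relative viability is the treated-to-vehicle ratio of nuclei counts. Values are medians of duplicate plates.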

Alpelisib + Foretinib = compound: Cc1nc(NC(=O)N2CCC[C@H]2C(N)=O)sc1-c1ccnc(C(C)(C)C(F)(F)F)c1 [Alpelisib] + COc1cc2c(Oc3ccc(NC(=O)C4(C(=O)Nc5ccc(F)cc5)CC4)cc3F)ccnc2cc1OCCCN1CCOCC1 [Foretinib] (partner 0.25 µM)
Outline: as §1

Vemurafenib + Olaparib = compound: CCCS(=O)(=O)Nc1ccc(F)c(C(=O)c2c[nH]c3ncc(-c4ccc(Cl)cc4)cc23)c1F [Vemurafenib] + O=C(c1cc(Cc2n[nH]c(=O)c3ccccc23)ccc1F)N1CCN(C(=O)C2CC2)CC1 [Olaparib] (partner 8 µM)
Outline: as §1

Alpelisib + Navitoclax = compound: Cc1nc(NC(=O)N2CCC[C@H]2C(N)=O)sc1-c1ccnc(C(C)(C)C(F)(F)F)c1 [Alpelisib] + CC1(C)CCC(c2ccc(Cl)cc2)=C(CN2CCN(c3ccc(C(=O)NS(=O)(=O)c4ccc(N[C@H](CCN5CCOCC5)CSc5ccccc5)c(S(=O)(=O)C(F)(F)F)c4)cc3)CC2)C1 [Navitoclax] (partner 0.5 µM)
Outline: as §1

| Cell Line | relative viability (OSI-027 + Pemetrexed; first compound 0.01 µM) | relative viability (OSI-027 + Pemetrexed; first compound 0.03162 µM) | relative viability (OSI-027 + Pemetrexed; first compound 0.1 µM) | relative viability (OSI-027 + Pemetrexed; first compound 0.3162 µM) | relative viability (OSI-027 + Pemetrexed; first compound 1 µM) | relative viability (Alpelisib + Foretinib; first compound 0.04 µM) | relative viability (Alpelisib + Foretinib; first compound 0.1265 µM) | relative viability (Alpelisib + Foretinib; first compound 0.4 µM) | relative viability (Alpelisib + Foretinib; first compound 1.265 µM) | relative viability (Alpelisib + Foretinib; first compound 4 µM) | relative viability (Vemurafenib + Olaparib; first compound 0.03162 µM) | relative viability (Vemurafenib + Olaparib; first compound 0.1 µM) | relative viability (Vemurafenib + Olaparib; first compound 0.3162 µM) | relative viability (Vemurafenib + Olaparib; first compound 1 µM) | relative viability (Alpelisib + Navitoclax; first compound 0.04 µM) | relative viability (Alpelisib + Navitoclax; first compound 0.1265 µM) | relative viability (Alpelisib + Navitoclax; first compound 0.4 µM) | relative viability (Alpelisib + Navitoclax; first compound 1.265 µM) | relative viability (Alpelisib + Navitoclax; first compound 4 µM) |
| --- | --- | --- | --- | --- | --- | --- | --- | --- | --- | --- | --- | --- | --- | --- | --- | --- | --- | --- | --- |
| NCI-H1395 | 0.736 | 0.826 | 0.643 | 0.74 | 0.74 | 0.889 | 1.04 | 1.01 | 0.897 | 0.988 | 0.405 | 0.506 | 0.429 | 0.482 | 1.18 | 1.12 | 1.45 | 0.984 | 0.927 |
| NCI-H1437 | 0.357 | 0.348 | 0.26 | 0.259 | 0.24 | 1.23 | 1.33 | 1.33 | 1.27 | 1.31 | 0.629 | 0.589 | 0.615 | 0.637 | 1.09 | 1.13 | 1.03 | 1.01 | 1.03 |
| NCI-H1650 | 0.404 | 0.361 | 0.369 | 0.405 | 0.475 | 1.09 | 1.1 | 1.35 | 0.867 | 1.15 | 0.677 | 0.626 | 0.844 | 0.791 | 1.29 | 1.29 | 1.42 | 0.762 | 1.19 |
| NCI-H1651 | 0.54 | 0.575 | 0.532 | 0.57 | 0.523 | 0.683 | 0.853 | 0.791 | 0.571 | 0.741 | 0.167 | 0.203 | 0.193 | 0.169 | 0.956 | 1.11 | 1.04 | 0.773 | 0.791 |
